Experimental data as given in paper PMC2923778 (Journal of Molecular Biology, 2010).
Where no end group is shown, it is not given here.

How the values were obtained:
mSPSB4ΔSB = target: T1, mSPSB4ΔSB (Mus musculus, UniProt Q8R5B6); assay: ITC of hPar-4 peptides with mSPSB4ΔSB; assay type: binding, murine; conditions: 22 °C
T1 construct: mSPSB1 and mSPSB4 lacking the C-terminal SOCS box region (mSPSB1ΔSB and mSPSB4ΔSB); GST (cleaved yes); made in house; host or cells: E. coli Origami B(DE3) pLysS
T1 sequence (Q8R5B6 1-233): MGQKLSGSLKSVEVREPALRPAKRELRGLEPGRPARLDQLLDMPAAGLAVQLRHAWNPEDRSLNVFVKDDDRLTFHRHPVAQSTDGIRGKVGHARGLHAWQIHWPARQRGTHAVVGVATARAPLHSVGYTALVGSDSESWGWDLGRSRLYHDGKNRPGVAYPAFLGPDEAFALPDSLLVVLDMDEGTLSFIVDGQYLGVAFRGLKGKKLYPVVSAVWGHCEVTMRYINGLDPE
Protocol: (§1) Shorter mSPSB constructs were also used for mSPSB1 and mSPSB4 lacking the C-terminal SOCS box region (mSPSB1ΔSB and mSPSB4ΔSB); they were cloned into pGEX-2T (GE Healthcare, UK). […] Each of the mSPSBΔSB constructs was expressed in Origami B(DE3) pLysS cells (Novagen, Madison, WI) as a GST fusion protein at 20 °C for 24 h with 0.5 mM IPTG added at OD600 = 0.6–0.8.
(§2) ITC measurements on mSPSB proteins were performed at 22 °C using a MicroCalorimetry System (MicroCal, Northhampton, MA). mSPSB1, mSPSB2, and mSPSB4 were prepared by dialyzing against 20 mM Tris, 150 mM sodium chloride, and 2.5 mM calcium chloride at pH 8.0. Measurements on hSPSB proteins were performed at 20 °C using a VP-ITC titration calorimeter (MicroCal). hSPSB1 protein was dialyzed against 50 mM Hepes, pH 7.4, 150 mM NaCl, and 1 mM DTT. hSPSB2 and hSPSB4 proteins were dialyzed against 50 mM Hepes, pH 7.4, 150 mM NaCl, and 0.5 mM TCEP. Peptides for each experiment were dissolved in the corresponding dialysis buffers. ITC measurements were routinely carried out by titrating 100 μM peptide solution into 10 μM protein. Dilution enthalpies were determined separately by titrating peptide into buffer and used to correct the enthalpies of the binding of protein and peptide. Data were analyzed using a single binding site model implemented in the Origin software package provided with the instrument.

mSPSB2(12–224) = target: T2, mSPSB2(12–224) (Mus musculus, UniProt O88838); assay: ITC of hPar-4 peptides with mSPSB2(12–224); assay type: binding, murine; conditions: 22 °C, pH 8.0, nm [sic]
T2 construct: mSPSB2(12–224) and mutants used in this study have been described previously; GST (cleaved yes); made in house; host or cells: E. coli Origami B(DE3) pLysS
T2 sequence (O88838 12-224): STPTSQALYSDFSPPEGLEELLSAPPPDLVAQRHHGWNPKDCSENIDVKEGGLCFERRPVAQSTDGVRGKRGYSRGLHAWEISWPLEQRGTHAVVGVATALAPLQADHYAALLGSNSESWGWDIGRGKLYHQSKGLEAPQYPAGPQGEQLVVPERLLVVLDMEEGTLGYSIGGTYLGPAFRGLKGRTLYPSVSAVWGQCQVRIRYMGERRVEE
Protocol: as §1, §2

mSPSB1ΔSB = target: T3, mSPSB1ΔSB (Mus musculus, UniProt Q9D5L7); assay: ITC of hPar-4 peptides with mSPSB1ΔSB; assay type: binding, murine; conditions: 22 °C
T3 construct: mSPSB1 and mSPSB4 lacking the C-terminal SOCS box region (mSPSB1ΔSB and mSPSB4ΔSB); GST (cleaved yes); made in house; host or cells: E. coli Origami B(DE3) pLysS
T3 sequence (Q9D5L7 1-231): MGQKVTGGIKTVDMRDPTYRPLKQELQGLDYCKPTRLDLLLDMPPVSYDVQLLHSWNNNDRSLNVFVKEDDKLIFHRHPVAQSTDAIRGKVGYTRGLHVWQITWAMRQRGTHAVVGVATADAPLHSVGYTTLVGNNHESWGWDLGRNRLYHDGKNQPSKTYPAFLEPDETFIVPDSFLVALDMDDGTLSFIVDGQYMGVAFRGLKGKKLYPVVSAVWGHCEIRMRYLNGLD
Description: Shorter mSPSB constructs were also used for mSPSB1 and mSPSB4 lacking the C-terminal SOCS box region (mSPSB1ΔSB and mSPSB4ΔSB); they were cloned into pGEX-2T (GE Healthcare, UK). The shorter mSPSB2 construct excluded the first 11 residues at the N-terminus and the C-terminus SOCS box [mSPSB2(12–224)]. mSPSB2(12–224) and mutants used in this study have been described previously.[21] Each of the mSPSBΔSB constructs was expressed in Origami B(DE3) pLysS cells (Novagen, Madison, WI) as a GST fusion protein at 20 °C for 24 h with 0.5 mM IPTG added at OD600 = 0.6–0.8. The mSPSBΔSB proteins were isolated according to the method used for purifying the mSPSB–elonginBC complex.
as §2

mSPSB4ΔSB (murine) = assay: ITC; 100 μM peptide titrated into 10 μM mSPSB protein; 22 °C; 20 mM Tris, 150 mM sodium chloride, 2.5 mM calcium chloride, pH 8.0; single binding site model
hSPSB1-elonginBC = test system: hSPSB1-elonginBC; design: method as in PMID 17189197; conditions: previous study; cited from earlier work
[1] = 20 mM Tris, 150 mM NaCl, 2.5 mM CaCl2, pH 8.0, 100 μM peptide into 10 μM protein, ± standard error of the mean

Row | Compound | Kd (mSPSB4ΔSB; [1]) [nM] | Kd (mSPSB2(12–224)) [nM] | further results
1 | AAANDLNNNLPGGA [[E68D]hPar-4(64–77)] | 47 ± 22 | – | –
2 | AAANELNANLPGGA [[N71A]hPar-4(64–77)] | – | > 50000 | Kd (mSPSB4ΔSB; pH 8.0, nm [sic]): > 50000 nM; Kd (mSPSB1ΔSB; pH 8.0, nm [sic]): > 50000 nM
3 | hPar-4(59–77) (peptide) | – | – | Kd (mSPSB4ΔSB (murine)): 189 nM
4 | CC(C)C[C@H](NC(=O)[C@H](CCC(=O)O)NC(=O)[C@H](CC(N)=O)NC(=O)[C@H](C)NC(=O)[C@H](C)NC(=O)[C@H](C)NC(=O)[C@H](C)NC(=O)[C@H](C)NC(=O)[C@@H]1CCCN1C(=O)[C@@H](NC(=O)CN)[C@@H](C)O)C(=O)N[C@@H](CC(N)=O)C(=O)N[C@@H](CC(N)=O)C(=O)N[C@@H](C)C(=O)N[C@@H](CC(C)C)C(=O)N1CCC[C@H]1C(=O)NCC(=O)NCC(=O)N[C@@H](C)C(=O)O [[N72A]hPar-4(59–77)] | – | > 50000 | –
5 | [N72A]hPar-4(67–81): N72A mutant peptide of hPar-4(67–81) from a previous study (ref 10) (NELNNALPGGAPAAP; UniProt Q96IZ0 67-81, looked up, variant N72A) | – | – | binding to hSPSB1-elonginBC (in words) (hSPSB1-elonginBC): poor binding
6 | GTPAAAADNELNNNLPGGA [[A66D]hPar-4(59–77)] | 255 ± 5 | – | –
7 | AAANEINNNLPGGA [[L69I]hPar-4(64–77)] | 55 ± 8 | – | –
8 | AAANDINNNLPGGA [[E68D,L69I]hPar-4(64–77)] | 33 ± 23 | – | Kd (mSPSB1ΔSB; [1]): 40 ± 5 nM
9 | AAANELNNNLPGGA [hPar-4(64–77)] | 213 ± 7 | – | Kd (mSPSB1ΔSB; [1]): 210 ± 19 nM
10 | AAANELANNLPGGA [[N70A]hPar-4(64–77)] | – | > 50000 | Kd (mSPSB4ΔSB; pH 8.0, nm [sic]): > 50000 nM; Kd (mSPSB1ΔSB; pH 8.0, nm [sic]): > 50000 nM
